Assay results published in EP4722207A1, “OXOISOINDOLINYL-SUBSTITUTED TETRAHYDROPYRIMIDINEDIONE DERIVATIVE AND USE THEREOF” (Gluetacs Therapeutics (Shanghai) Co., Ltd., priority 2023, dated 2024).

Tests used:
Type in all cases: cell-based
GSPT1 = biological target: T1, GSPT1 (Homo sapiens, UniProt P15170+Q96SW2); assay: Western-blot assay, substrate protein degradation in hPBMCs: GSPT1; conditions: for substrate protein remaining % GSPT1: 24 hours of compound treatment, 50 nM and 500 nM; for GSPT1 substrate protein remaining %: compounds at 50 nM and 500 nM, 24 hours
T1 construct: effects of the compounds of the present disclosure on the expression of target proteins in cells; endogenous in cells; host or cells: human PBMCs (hPBMCs)
T1 sequence (P15170 whole entry): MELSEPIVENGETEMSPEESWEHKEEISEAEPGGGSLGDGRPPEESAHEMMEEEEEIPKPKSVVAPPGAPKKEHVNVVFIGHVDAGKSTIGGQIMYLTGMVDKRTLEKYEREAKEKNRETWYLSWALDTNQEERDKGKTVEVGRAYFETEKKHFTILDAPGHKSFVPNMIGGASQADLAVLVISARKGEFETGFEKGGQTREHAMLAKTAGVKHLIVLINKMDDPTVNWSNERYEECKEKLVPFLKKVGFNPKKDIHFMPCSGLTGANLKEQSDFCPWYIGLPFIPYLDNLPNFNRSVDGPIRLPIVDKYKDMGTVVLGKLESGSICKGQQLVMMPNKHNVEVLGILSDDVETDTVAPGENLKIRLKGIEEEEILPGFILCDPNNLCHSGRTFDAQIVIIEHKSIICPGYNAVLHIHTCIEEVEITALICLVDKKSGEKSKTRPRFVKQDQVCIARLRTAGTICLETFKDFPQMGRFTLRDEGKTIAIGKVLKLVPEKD
T1 sequence (Q96SW2 whole entry): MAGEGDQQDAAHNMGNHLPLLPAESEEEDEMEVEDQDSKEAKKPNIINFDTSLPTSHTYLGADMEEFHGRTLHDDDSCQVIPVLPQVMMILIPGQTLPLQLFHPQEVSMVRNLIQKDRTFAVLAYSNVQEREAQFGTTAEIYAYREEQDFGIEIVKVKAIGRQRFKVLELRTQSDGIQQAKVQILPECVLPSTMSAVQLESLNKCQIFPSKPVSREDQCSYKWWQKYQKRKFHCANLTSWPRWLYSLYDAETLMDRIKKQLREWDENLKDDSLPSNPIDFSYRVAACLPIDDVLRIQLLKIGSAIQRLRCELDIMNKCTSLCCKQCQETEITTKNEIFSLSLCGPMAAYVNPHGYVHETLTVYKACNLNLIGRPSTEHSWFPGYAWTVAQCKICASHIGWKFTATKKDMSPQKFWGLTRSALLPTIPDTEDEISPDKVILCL
T1 sequence (Q16531 whole entry partner): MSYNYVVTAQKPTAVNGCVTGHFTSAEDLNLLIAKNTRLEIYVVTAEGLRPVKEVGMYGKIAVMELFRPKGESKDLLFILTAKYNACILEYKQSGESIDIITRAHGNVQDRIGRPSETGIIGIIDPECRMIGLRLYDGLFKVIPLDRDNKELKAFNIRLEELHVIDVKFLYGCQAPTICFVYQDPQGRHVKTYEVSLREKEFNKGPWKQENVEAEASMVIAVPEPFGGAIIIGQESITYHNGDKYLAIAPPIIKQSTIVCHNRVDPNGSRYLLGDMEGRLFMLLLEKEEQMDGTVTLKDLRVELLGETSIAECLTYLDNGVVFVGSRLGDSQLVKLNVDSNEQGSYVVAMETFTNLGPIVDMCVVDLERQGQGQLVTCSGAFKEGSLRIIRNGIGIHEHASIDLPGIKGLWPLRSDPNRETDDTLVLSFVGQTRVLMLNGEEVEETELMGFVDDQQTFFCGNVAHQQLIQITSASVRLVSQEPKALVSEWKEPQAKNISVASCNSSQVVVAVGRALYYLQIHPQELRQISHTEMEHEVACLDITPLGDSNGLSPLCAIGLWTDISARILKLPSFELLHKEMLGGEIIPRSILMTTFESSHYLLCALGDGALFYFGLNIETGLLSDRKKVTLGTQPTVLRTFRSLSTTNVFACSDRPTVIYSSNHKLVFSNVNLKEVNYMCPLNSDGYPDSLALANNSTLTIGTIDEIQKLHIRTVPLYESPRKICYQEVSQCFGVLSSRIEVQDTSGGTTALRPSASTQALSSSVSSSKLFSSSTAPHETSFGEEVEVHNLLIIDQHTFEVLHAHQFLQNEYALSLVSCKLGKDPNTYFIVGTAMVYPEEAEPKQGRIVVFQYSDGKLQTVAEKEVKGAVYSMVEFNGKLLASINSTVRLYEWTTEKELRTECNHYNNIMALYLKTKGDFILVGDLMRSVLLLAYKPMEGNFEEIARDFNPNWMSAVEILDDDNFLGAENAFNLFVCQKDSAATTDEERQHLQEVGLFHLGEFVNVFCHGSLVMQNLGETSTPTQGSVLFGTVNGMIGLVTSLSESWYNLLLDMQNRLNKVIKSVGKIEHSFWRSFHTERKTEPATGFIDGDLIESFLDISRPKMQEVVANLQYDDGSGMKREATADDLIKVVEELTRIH

WEE1 = biological target: T2, WEE1 (Homo sapiens, UniProt P30291+Q96SW2); assay: Western-blot assay, substrate protein degradation in hPBMCs: WEE1; conditions: for substrate protein remaining % WEE1: 24 hours of compound treatment, 50 nM and 500 nM; for WEE1 substrate protein remaining %: compounds at 50 nM and 500 nM, 24 hours
T2 construct: effects of the compounds of the present disclosure on the expression of target proteins in cells; endogenous in cells; host or cells: human PBMCs (hPBMCs)
T2 sequence (P30291 whole entry): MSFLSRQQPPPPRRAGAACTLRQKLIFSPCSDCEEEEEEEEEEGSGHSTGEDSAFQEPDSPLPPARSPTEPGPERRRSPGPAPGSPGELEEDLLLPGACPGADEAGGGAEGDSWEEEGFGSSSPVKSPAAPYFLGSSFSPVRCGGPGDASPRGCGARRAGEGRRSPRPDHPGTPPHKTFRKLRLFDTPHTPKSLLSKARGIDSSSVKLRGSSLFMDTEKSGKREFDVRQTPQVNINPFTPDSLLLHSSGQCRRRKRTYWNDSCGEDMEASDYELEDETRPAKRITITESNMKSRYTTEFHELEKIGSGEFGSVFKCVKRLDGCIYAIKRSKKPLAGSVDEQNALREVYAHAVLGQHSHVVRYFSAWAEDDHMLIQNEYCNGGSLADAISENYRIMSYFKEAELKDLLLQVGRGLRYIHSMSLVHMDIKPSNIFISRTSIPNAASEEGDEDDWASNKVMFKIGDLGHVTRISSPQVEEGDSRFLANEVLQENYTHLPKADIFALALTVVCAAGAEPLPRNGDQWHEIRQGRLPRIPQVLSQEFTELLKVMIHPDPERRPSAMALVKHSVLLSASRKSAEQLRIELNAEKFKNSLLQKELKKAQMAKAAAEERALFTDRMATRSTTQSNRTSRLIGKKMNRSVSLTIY
T2 sequence (Q96SW2 whole entry): as the sequence (Q96SW2 whole entry) above
T2 sequence (Q16531 whole entry partner): as the sequence (Q16531 whole entry partner) above

IKZF1 = biological target: T3, IKZF1 (Homo sapiens, UniProt Q13422+Q96SW2); assay: Western-blot assay, substrate protein degradation in hPBMCs: IKZF1; conditions: for substrate protein remaining % IKZF1: 24 hours of compound treatment, 50 nM and 500 nM; for IKZF1 substrate protein remaining %: compounds at 50 nM and 500 nM, 24 hours
T3 construct: effects of the compounds of the present disclosure on the expression of target proteins in cells; endogenous in cells; host or cells: human PBMCs (hPBMCs)
T3 sequence (Q13422 whole entry): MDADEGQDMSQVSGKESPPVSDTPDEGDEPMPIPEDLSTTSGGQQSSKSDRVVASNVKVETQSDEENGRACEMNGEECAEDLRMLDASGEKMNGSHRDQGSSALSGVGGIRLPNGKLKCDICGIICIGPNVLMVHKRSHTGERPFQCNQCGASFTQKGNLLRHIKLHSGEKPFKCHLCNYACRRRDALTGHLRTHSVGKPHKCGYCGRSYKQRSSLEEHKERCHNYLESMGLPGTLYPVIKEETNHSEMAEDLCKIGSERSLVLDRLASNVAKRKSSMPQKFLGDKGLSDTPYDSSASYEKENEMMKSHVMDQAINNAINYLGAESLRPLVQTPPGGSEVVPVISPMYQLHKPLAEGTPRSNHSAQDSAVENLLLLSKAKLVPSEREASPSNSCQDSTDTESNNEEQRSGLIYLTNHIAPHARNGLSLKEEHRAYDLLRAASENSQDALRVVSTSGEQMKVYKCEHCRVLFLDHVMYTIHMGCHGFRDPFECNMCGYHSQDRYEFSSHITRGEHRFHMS
T3 sequence (Q96SW2 whole entry): as the sequence (Q96SW2 whole entry) above
T3 sequence (Q16531 whole entry partner): as the sequence (Q16531 whole entry partner) above

IKZF3 = biological target: T4, IKZF3 (Homo sapiens, UniProt Q96SW2+Q9UKT9); assay: Western-blot assay, substrate protein degradation in hPBMCs: IKZF3; conditions: for substrate protein remaining % IKZF3: 24 hours of compound treatment, 50 nM and 500 nM; for IKZF3 substrate protein remaining %: compounds at 50 nM and 500 nM, 24 hours
T4 construct: effects of the compounds of the present disclosure on the expression of target proteins in cells; endogenous in cells; host or cells: human PBMCs (hPBMCs)
T4 sequence (Q9UKT9 whole entry): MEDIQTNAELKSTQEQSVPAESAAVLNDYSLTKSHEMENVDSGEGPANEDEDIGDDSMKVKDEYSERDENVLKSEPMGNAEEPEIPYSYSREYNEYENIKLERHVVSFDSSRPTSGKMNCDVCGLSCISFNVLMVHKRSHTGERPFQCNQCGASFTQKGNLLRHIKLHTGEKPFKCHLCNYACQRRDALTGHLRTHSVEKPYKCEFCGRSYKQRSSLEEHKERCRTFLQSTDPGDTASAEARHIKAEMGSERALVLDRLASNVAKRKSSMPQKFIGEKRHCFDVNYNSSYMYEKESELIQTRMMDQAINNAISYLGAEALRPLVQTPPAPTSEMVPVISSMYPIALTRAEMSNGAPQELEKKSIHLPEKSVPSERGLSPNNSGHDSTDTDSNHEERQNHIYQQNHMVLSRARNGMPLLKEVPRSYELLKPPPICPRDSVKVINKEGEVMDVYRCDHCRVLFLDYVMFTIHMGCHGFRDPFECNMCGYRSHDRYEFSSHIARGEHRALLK
T4 sequence (Q96SW2 whole entry): as the sequence (Q96SW2 whole entry) above
T4 sequence (Q16531 whole entry partner): as the sequence (Q16531 whole entry partner) above

CK1α = biological target: T5, CK1α (Homo sapiens, UniProt P48729+Q96SW2); assay: Western-blot assay, substrate protein degradation in hPBMCs: CK1α; conditions: for substrate protein remaining % CK1α: 24 hours of compound treatment, 50 nM and 500 nM; for CK1α substrate protein remaining %: compounds at 50 nM and 500 nM, 24 hours
T5 construct: effects of the compounds of the present disclosure on the expression of target proteins in cells; endogenous in cells; host or cells: human PBMCs (hPBMCs)

IKZF2 = biological target: T6, IKZF2 (Homo sapiens, UniProt Q96SW2+Q9UKS7); assay: Western-blot assay, substrate protein degradation in hPBMCs: IKZF2; conditions: for substrate protein remaining % IKZF2: 24 hours of compound treatment, 50 nM and 500 nM; for IKZF2 substrate protein remaining %: compounds at 50 nM and 500 nM, 24 hours
T6 construct: effects of the compounds of the present disclosure on the expression of target proteins in cells; endogenous in cells; host or cells: human PBMCs (hPBMCs)
T6 sequence (Q9UKS7 whole entry): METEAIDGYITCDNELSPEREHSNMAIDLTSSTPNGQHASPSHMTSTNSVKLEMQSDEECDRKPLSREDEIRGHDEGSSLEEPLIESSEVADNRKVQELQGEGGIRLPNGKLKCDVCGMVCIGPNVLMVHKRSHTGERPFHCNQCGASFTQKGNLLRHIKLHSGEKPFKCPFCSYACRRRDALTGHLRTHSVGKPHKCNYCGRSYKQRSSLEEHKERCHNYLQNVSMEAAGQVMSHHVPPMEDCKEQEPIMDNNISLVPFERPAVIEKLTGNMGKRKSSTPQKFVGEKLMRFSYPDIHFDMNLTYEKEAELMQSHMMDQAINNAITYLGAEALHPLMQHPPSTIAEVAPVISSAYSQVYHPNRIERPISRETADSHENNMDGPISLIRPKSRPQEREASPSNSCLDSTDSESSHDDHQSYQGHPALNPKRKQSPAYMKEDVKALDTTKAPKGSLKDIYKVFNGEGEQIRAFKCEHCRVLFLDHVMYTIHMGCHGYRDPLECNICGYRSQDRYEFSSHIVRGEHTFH
T6 sequence (Q96SW2 whole entry): as the sequence (Q96SW2 whole entry) above
T6 sequence (Q16531 whole entry partner): as the sequence (Q16531 whole entry partner) above

| Structure (SMILES) | substrate protein remaining % GSPT1 (GSPT1) | GSPT1 substrate protein remaining % (GSPT1) | substrate protein remaining % WEE1 (WEE1) | WEE1 substrate protein remaining % (WEE1) | substrate protein remaining % IKZF1 (IKZF1) | IKZF1 substrate protein remaining % (IKZF1) | substrate protein remaining % IKZF3 (IKZF3) | IKZF3 substrate protein remaining % (IKZF3) | substrate protein remaining % CK1α (CK1α) | CK1α substrate protein remaining % (CK1α) | substrate protein remaining % IKZF2 (IKZF2) | IKZF2 substrate protein remaining % (IKZF2) |
| --- | --- | --- | --- | --- | --- | --- | --- | --- | --- | --- | --- | --- |
| O=C1CCN(N2Cc3cc(CN4CCN(c5ncc(C(F)(F)F)cc5Cl)CC4)ccc3C2=O)C(=O)N1 [GT-05433, 1-(5-((4-(3-chloro-5-(trifluoromethyl)pyridin-2-yl)piperazin-1-yl)methyl)-1-oxoisoindolin-2-yl)dihydropyrimidine-2,4(1H,3H)-dione] | A (0% ≤ substrate protein remaining % ≤ 80%) | A ("A" is defined as 0% ≤ substrate protein remaining % ≤ 80%) | A (0% ≤ substrate protein remaining % ≤ 80%) | A ("A" is defined as 0% ≤ substrate protein remaining % ≤ 80%) | B (80%< substrate protein remaining %≤ 100%) | B ("B" is defined as 80%< substrate protein remaining %≤ 100%) | B (80%< substrate protein remaining %≤ 100%) | B ("B" is defined as 80%< substrate protein remaining %≤ 100%) | B (80%< substrate protein remaining %≤ 100%) | B ("B" is defined as 80%< substrate protein remaining %≤ 100%) | A (0% ≤ substrate protein remaining % ≤ 80%) | B ("B" is defined as 80%< substrate protein remaining %≤ 100%) |
| O=C1CCN(N2Cc3cc(CN4CCN(c5ccc(Cl)c(Cl)c5)CC4)ccc3C2=O)C(=O)N1 [GT-06775, 1-(5-((4-(3,4-dichlorophenyl)piperazin-1-yl)methyl)-1-oxoisoindolin-2-yl)dihydropyrimidine-2,4(1H,3H)-dione] |  | A ("A" is defined as 0% ≤ substrate protein remaining % ≤ 80%) |  | B ("B" is defined as 80%< substrate protein remaining %≤ 100%) |  | B ("B" is defined as 80%< substrate protein remaining %≤ 100%) |  | A ("A" is defined as 0% ≤ substrate protein remaining % ≤ 80%) |  | A ("A" is defined as 0% ≤ substrate protein remaining % ≤ 80%) |  | A ("A" is defined as 0% ≤ substrate protein remaining % ≤ 80%) |
| O=C1CCN(N2Cc3cc(CN4CCC(N5C(=O)COc6cc(F)ccc65)CC4)ccc3C2=O)C(=O)N1 [GT-07586, 1-(5-((4-(7-fluoro-3-oxo-2,3-dihydro-4H-benzo[b][1,4]oxazin-4-yl)piperidin-1-yl)methyl)-1-oxoisoindolin-2-yl)dihydropyrimidine-2,4(1H,3H)-dione] | A (0% ≤ substrate protein remaining % ≤ 80%) |  | A (0% ≤ substrate protein remaining % ≤ 80%) |  | A (0% ≤ substrate protein remaining % ≤ 80%) |  | B (80%< substrate protein remaining %≤ 100%) |  | B (80%< substrate protein remaining %≤ 100%) |  | B (80%< substrate protein remaining %≤ 100%) |  |
| O=C1CCN(N2Cc3cc(CN4CCCN(c5cccc(Cl)c5Cl)CC4)ccc3C2=O)C(=O)N1 [GT-07431, 1-(5-((4-(2,3-dichlorophenyl)-1,4-diazepan-1-yl)methyl)-1-oxoisoindolin-2-yl)dihydropyrimidine-2,4(1H,3H)-dione] | B (80%< substrate protein remaining %≤ 100%) |  | B (80%< substrate protein remaining %≤ 100%) |  | A (0% ≤ substrate protein remaining % ≤ 80%) |  | B (80%< substrate protein remaining %≤ 100%) |  | A (0% ≤ substrate protein remaining % ≤ 80%) |  | B (80%< substrate protein remaining %≤ 100%) |  |
| NCc1ccc2c(c1)C(=O)N(N1CCC(=O)NC1=O)C2=O [GT-07968, 5-(aminomethyl)-2-(2,4-dioxotetrahydropyrimidin-1(2H)-yl)isoindoline-1,3-dione] | B (80%< substrate protein remaining %≤ 100%) |  | A (0% ≤ substrate protein remaining % ≤ 80%) |  | A (0% ≤ substrate protein remaining % ≤ 80%) |  | A (0% ≤ substrate protein remaining % ≤ 80%) |  | A (0% ≤ substrate protein remaining % ≤ 80%) |  | A (0% ≤ substrate protein remaining % ≤ 80%) |  |
| O=C1CCN(N2C(=O)c3ccc(CN4CCC(c5cccc6c(F)cccc56)CC4)cc3C2=O)C(=O)N1 [GT-07686, 2-(2,4-dioxotetrahydropyrimidin-1(2H)-yl)-5-((4-(5-fluoronaphthalen-1-yl)piperidin-1-yl)methyl)isoindoline-1,3-dione] | A (0% ≤ substrate protein remaining % ≤ 80%) |  | B (80%< substrate protein remaining %≤ 100%) |  | B (80%< substrate protein remaining %≤ 100%) |  | B (80%< substrate protein remaining %≤ 100%) |  | B (80%< substrate protein remaining %≤ 100%) |  | B (80%< substrate protein remaining %≤ 100%) |  |
| O=C1CCN(N2C(=O)c3ccc(CN4CCN(c5nsc6cc(F)ccc56)CC4)cc3C2=O)C(=O)N1 [GT-07526, 2-(2,4-dioxotetrahydropyrimidin-1(2H)-yl)-5-((4-(6-fluorobenzo[d]isothiazol-3-yl)piperazin-1-yl)methyl)isoindoline-1,3-dione] | A (0% ≤ substrate protein remaining % ≤ 80%) |  | B (80%< substrate protein remaining %≤ 100%) |  | B (80%< substrate protein remaining %≤ 100%) |  | B (80%< substrate protein remaining %≤ 100%) |  | A (0% ≤ substrate protein remaining % ≤ 80%) |  | B (80%< substrate protein remaining %≤ 100%) |  |
| O=C1CCN(N2C(=O)c3ccc(CN4CCC(c5ccccc5)CC4)cc3C2=O)C(=O)N1 [GT-06803, 2-(2,4-dioxotetrahydropyrimidin-1(2H)-yl)-5-((4-phenylpiperidin-1-yl)methyl)isoindoline-1,3-dione] |  | B ("B" is defined as 80%< substrate protein remaining %≤ 100%) |  | B ("B" is defined as 80%< substrate protein remaining %≤ 100%) |  | B ("B" is defined as 80%< substrate protein remaining %≤ 100%) |  | B ("B" is defined as 80%< substrate protein remaining %≤ 100%) |  | A ("A" is defined as 0% ≤ substrate protein remaining % ≤ 80%) |  | B ("B" is defined as 80%< substrate protein remaining %≤ 100%) |
| Cc1ccc(N2CCN(Cc3ccc4c(c3)CN(N3CCC(=O)NC3=O)C4=O)CC2)cc1 [GT-06771, 1-(1-oxo-5-((4-(p-tolyl)piperazin-1-yl)methyl)isoindolin-2-yl)dihydropyrimidine-2,4(1H,3H)-dione] |  | A ("A" is defined as 0% ≤ substrate protein remaining % ≤ 80%) |  | A ("A" is defined as 0% ≤ substrate protein remaining % ≤ 80%) |  | B ("B" is defined as 80%< substrate protein remaining %≤ 100%) |  | A ("A" is defined as 0% ≤ substrate protein remaining % ≤ 80%) |  | A ("A" is defined as 0% ≤ substrate protein remaining % ≤ 80%) |  | A ("A" is defined as 0% ≤ substrate protein remaining % ≤ 80%) |
| O=C1CCN(N2C(=O)c3ccc(CN4CCN(c5n[nH]c6cc(F)ccc56)CC4)cc3C2=O)C(=O)N1 [GT-07527, 2-(2,4-dioxotetrahydropyrimidin-1(2H)-yl)-5-((4-(6-fluoro-1H-indazol-3-yl)piperazin-1-yl)methyl)isoindoline-1,3-dione] | A (0% ≤ substrate protein remaining % ≤ 80%) |  | B (80%< substrate protein remaining %≤ 100%) |  | B (80%< substrate protein remaining %≤ 100%) |  | B (80%< substrate protein remaining %≤ 100%) |  | A (0% ≤ substrate protein remaining % ≤ 80%) |  | B (80%< substrate protein remaining %≤ 100%) |  |
| O=C1CCN(N2Cc3cc(CN4CCN(c5nc(Cl)nc6ccsc56)CC4)ccc3C2=O)C(=O)N1 [GT-08444, 1-(5-((4-(2-chlorothieno[3,2-d]pyrimidin-4-yl)piperazin-1-yl)methyl)-1-oxoisoindolin-2-yl)dihydropyrimidine-2,4(1H,3H)-dione] | B (80%< substrate protein remaining %≤ 100%) |  | A (0% ≤ substrate protein remaining % ≤ 80%) |  | B (80%< substrate protein remaining %≤ 100%) |  | B (80%< substrate protein remaining %≤ 100%) |  | B (80%< substrate protein remaining %≤ 100%) |  | B (80%< substrate protein remaining %≤ 100%) |  |
| O=C1CCN(N2C(=O)c3ccc(CN4CCN(Cc5ccccc5-c5ccc(Cl)cc5)CC4)cc3C2=O)C(=O)N1 [GT-06432, 5-((4-((4'-chloro-[1,1'-biphenyl]-2-yl)methyl)piperazin-1-yl)methyl)-2-(2,4-dioxotetrahydropyrimidin-1(2H)-yl)isoindoline-1,3-dione] |  | A ("A" is defined as 0% ≤ substrate protein remaining % ≤ 80%) |  | A ("A" is defined as 0% ≤ substrate protein remaining % ≤ 80%) |  | A ("A" is defined as 0% ≤ substrate protein remaining % ≤ 80%) |  | B ("B" is defined as 80%< substrate protein remaining %≤ 100%) |  | B ("B" is defined as 80%< substrate protein remaining %≤ 100%) |  | B ("B" is defined as 80%< substrate protein remaining %≤ 100%) |
